Results on one compound are retold here after ChEMBL document CHEMBL1156397, “A benzylisoquinoline alkaloid from Doryphora sassafras” (J Nat Prod, 2001).

This assay has as its target Kappa-type opioid receptor (Cavia porcellus) (UniProt P41144). Put plainly: Displacement of [3H]U69593 from kappa opioid receptor in guinea pig brain membrane at 100 uM by Betaplate liquid scintillation counter. The assay is classed as cell membranes. On the technique in general: In a radioligand displacement assay an active substance lowers the binding of a labelled ligand.

Kappa-type opioid receptor (Cavia porcellus), sequence (P41144 whole entry): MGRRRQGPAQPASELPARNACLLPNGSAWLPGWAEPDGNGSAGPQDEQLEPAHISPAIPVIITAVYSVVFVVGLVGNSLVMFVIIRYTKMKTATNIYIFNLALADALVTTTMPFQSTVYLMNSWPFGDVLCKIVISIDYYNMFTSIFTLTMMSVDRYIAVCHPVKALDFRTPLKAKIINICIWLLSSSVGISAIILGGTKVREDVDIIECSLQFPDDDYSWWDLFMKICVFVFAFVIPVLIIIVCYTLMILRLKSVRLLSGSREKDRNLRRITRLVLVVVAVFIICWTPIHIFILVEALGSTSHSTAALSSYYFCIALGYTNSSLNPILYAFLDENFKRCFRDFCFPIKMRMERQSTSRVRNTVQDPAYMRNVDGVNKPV

With `COc1ccc(Cc2c3cc4c(cc3cc[n+]2C)OCO4)cc1`, the Activity worked out at 50%.
